Assay results reported in US9192613B1, “Treatment method for primary premature ejaculation” (Sapere IP, LLC, priority 2014, dated 2015).

Legend:
[1] = test system: patients with primary premature ejaculation; test: On-demand treatment of primary premature ejaculation: onset of action; type: in vivo, men; conditions: intracavernosal injection, 5-20 mcg, 20 mcg/ml
Description: Side-effects are dose related and include dizziness, headache, nausea, blurred vision and dry mouth.
The doses start at lower doses such as 5 mcg=0.25 ml and progress to higher doses such as 10 mcg=0.5 ml and 20 mcg=1 ml, as needed, to achieve the desired effect.

[2] = test system: men with premature ejaculation; conditions: cited from earlier work
[3] = test system: patients receiving intracavernous injection; conditions: pooled publications; cited from earlier work

CCCCC[C@H](O)/C=C/[C@H]1[C@H](O)CC(=O)[C@@H]1CCCCCCC(=O)O [Alprostadil]
Onset of Action [1]: 5 to 10 min

CN(C)CCCN1c2ccccc2CCc2ccc(Cl)cc21 [Clomipramine]
Effect at delaying ejaculation ([2]; oral administration): significant effect at delaying ejaculation
Time the drug needs to be taken before sexual relations ([2]; oral, on-demand use): 3 to 4 h

COc1ccc(Cc2nccc3cc(OC)c(OC)cc23)cc1OC [Papaverine]
Fibrosis (%) [3]: 5.7%
Liver Enzymes (%) [3]: 1.6%
Pain (%) [3]: 4%
Priapism (%) [3]: 7.1%
